Reference: ChEMBL document CHEMBL1811842, “Synthesis and evaluation of biotinylated sansalvamide A analogs and their modulation of Hsp90” (Bioorg Med Chem Lett, 2011)
The source made the active and inactive calls. The calls are words filed in the database; no cut-off is given here.

target: Heat shock protein HSP90 (Homo sapiens) (UniProt P07900+P08238); assay: Binding affinity to human HSP90-N-Middle Domain expressed in BL21 Escherichia coli after 2 hrs using silver staining by Pull down assay

Activity, active:
CC(C)[C@@H]1NC(=O)[C@H](CCCCNC(=O)CCOCCOCCOCCOCCNC(=O)CCCC[C@@H]2SC[C@@H]3NC(=O)N[C@@H]32)NC(=O)[C@H](CCCCNC(=O)OCc2ccccc2)NC(=O)[C@H](Cc2ccccc2)NC(=O)[C@@H](Cc2ccccc2)N(C)C1=O
CC(C)C[C@@H]1NC(=O)[C@H](CCCCNC(=O)OCc2ccccc2)NC(=O)[C@H](Cc2ccccc2)NC(=O)[C@@H](Cc2ccccc2)N(C)C(=O)[C@H](CCCCNC(=O)CCOCCOCCOCCOCCNC(=O)CCCC[C@@H]2SC[C@@H]3NC(=O)N[C@@H]32)NC1=O
CC(C)C[C@@H]1NC(=O)[C@H](CCCCNC(=O)OCc2ccccc2)NC(=O)[C@H](CCCCNC(=O)CCOCCOCCOCCOCCNC(=O)CCCC[C@@H]2SC[C@@H]3NC(=O)N[C@@H]32)NC(=O)[C@@H](Cc2ccccc2)N(C)C(=O)[C@H](C(C)C)NC1=O
